Measurements reported in patent US12516039B2, “N-linked isoquinoline amides as LRRK2 inhibitors, pharmaceutical compositions, and uses thereof” (Merck Sharp & Dohme LLC, priority 2020, dated 2026).

Molecular target: T1, GST-tagged truncated human mutant G2019S LRRK2 (Homo sapiens, UniProt Q5S007, G2019S)
T1 construct: GST-tagged truncated human mutant G2019S LRRK2; purchased Life Technologies Corporation (Carlsbad, CA)
Test: LRRK2 G2019S Km ATP LanthaScreen assay
Type: biochemical
Settings: 134 μM ATP (Km ATP), LRRKtide substrate, mean of several tests, read-out: LRRK2 pIC50 (converted)
Experimental: Unless otherwise noted, all reactions are magnetically stirred. Unless otherwise noted, when diethyl ether is used in the experiments described below, it is Fisher ACS certified material and is stabilized with BHT. Unless otherwise noted, “concentrated” and/or “solvent removed under reduced pressure” means evaporating the solvent from a solution or mixture using a rotary evaporator or vacuum pump. Unless otherwise noted, flash chromatography is carried out on a Teledyne Isco (Lincoln, NE), Analogix (Burlington, WI), or Biotage (Stockholm, SWE) automated chromatography system using a commercially available cartridge as the column. Columns may be purchased from Teledyne Isco, Analogix, Biotage, Varian (Palo Alto, CA), or Supelco (Bellefonte, PA) and are usually filled with silica gel as the stationary phase. Reverse phase prep-HPLC conditions, where used, can be found at the end of each experimental section. Aqueous solutions were concentrated on a Genevac (Ipswich, ENG) or by freeze-drying/lyophilization. Unless otherwise noted, all LRRK2 pIC50 data presented in tables refers to the LRRK2 G2019S Km ATP LanthaScreen™ assay (Life Technologies Corp., Carlsbad, CA) that is described in the Biological Assay section.
Biological Assay: LRRK2 Km ATP LanthaScreen™ Assay
The LRRK2 kinase activity reported herein as IC50 values was determined with LanthaScreen™ technology from Life Technologies Corporation (Carlsbad, CA) using GST-tagged truncated human mutant G2019S LRRK2 in the presence of the fluorescein-labeled peptide substrate LRRKtide, also from Life Technologies. The data presented for the Km ATP LanthaScreen™ Assay represents mean IC50 values based on several test results and may have reasonable deviations depending on the specific conditions and reagents used. Assays were performed in the presence of 134 μM ATP (Km ATP). Upon completion, the assay was stopped and phosphorylated substrate detected with a terbium (Tb)-labeled anti-pERM antibody (cat. no. PV4898). The compound dose response was prepared by diluting a 10 mM stock of compound to a maximum concentration of 9.99 μM in 100% dimethylsulfoxide followed by custom fold serial dilution in dimethylsulfoxide nine times. Twenty nanoliters of each dilution was spotted via a Labcyte Echo onto a 384-well black-sided plate (Corning 3575) followed by 15 μl of a 1.25 nM enzyme solution in 1× assay buffer (50 mM Tris pH 8.5, 10 mM MgCl2, 0.01% Brij-35, 1 mM EGTA, 2 mM dithiothreitol, 0.05 mM sodium orthovanadate). Following a 15-minute incubation at room temperature, the kinase reaction was started with the addition of 5 μl of 400 nM fluorescein-labeled LRRKtide peptide substrate and 134 μM ATP solution in 1× assay buffer. The reaction was allowed to progress at ambient temperature for 90 minutes. The reaction was then stopped by the addition of 20 μl of TR-FRET Dilution Buffer (Life Technologies, Carlsbad, CA) containing 2 nM Tb-labeled anti-phospho LRRKtide antibody and 10 mM EDTA (Life Technologies, Carlsbad, CA). After an incubation of 1 hour at room temperature, the plate was read on an EnVision multimode plate reader (Perkin Elmer, Waltham, MA) with an excitation wavelength of 337 nm (Laser) and a reading emission at both 520 and 495 nm. Compound IC50s were interpolated from nonlinear regression best fits of the log of the final compound concentration, plotted as a function of the 520/495-nm emission ratio using Activity base. Abase uses a 4 parameter (4P) logistic fit based on the Levenberg-Marquardt algorithm.

T1 sequence (Q5S007 970-2527 G2019S limits assumed): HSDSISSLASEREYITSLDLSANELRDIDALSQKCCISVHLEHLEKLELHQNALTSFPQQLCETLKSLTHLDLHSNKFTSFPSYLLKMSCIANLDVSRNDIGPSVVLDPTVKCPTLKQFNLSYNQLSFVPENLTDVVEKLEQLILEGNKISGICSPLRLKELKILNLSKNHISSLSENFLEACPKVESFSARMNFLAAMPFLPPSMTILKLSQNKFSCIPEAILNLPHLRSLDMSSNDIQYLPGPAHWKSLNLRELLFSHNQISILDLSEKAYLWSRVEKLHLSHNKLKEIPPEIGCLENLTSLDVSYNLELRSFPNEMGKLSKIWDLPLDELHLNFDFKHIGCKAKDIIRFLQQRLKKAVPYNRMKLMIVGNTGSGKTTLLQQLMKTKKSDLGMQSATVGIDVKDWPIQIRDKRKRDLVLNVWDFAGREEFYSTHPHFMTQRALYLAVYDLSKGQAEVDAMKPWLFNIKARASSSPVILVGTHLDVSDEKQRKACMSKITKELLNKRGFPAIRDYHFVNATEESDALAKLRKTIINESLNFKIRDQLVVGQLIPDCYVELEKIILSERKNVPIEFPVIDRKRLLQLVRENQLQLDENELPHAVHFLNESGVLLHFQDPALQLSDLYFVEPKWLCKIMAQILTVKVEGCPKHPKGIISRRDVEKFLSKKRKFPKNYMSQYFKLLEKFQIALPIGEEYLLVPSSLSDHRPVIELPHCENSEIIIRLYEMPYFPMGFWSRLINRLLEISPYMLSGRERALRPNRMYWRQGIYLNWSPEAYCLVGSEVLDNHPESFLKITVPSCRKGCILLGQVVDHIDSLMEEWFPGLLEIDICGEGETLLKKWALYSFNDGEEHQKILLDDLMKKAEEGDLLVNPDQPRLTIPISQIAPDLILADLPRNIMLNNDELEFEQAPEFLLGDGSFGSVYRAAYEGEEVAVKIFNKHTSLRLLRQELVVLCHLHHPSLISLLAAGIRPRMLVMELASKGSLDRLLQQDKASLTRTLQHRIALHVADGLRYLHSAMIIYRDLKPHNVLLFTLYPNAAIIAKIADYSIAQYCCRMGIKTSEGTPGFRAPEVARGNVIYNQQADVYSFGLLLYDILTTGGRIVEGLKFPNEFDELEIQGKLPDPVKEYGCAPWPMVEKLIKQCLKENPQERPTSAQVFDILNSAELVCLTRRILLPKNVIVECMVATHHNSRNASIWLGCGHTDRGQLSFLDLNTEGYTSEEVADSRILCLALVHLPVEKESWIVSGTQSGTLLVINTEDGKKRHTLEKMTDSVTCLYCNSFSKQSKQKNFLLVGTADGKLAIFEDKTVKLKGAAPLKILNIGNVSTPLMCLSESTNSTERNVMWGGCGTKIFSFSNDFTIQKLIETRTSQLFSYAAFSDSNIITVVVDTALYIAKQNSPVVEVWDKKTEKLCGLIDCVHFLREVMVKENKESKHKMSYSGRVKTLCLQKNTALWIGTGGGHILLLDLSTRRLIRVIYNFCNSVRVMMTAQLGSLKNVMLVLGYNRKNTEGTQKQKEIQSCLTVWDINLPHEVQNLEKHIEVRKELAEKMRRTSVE

Row | SMILES | IC50 [nM]
1 | CC1(N2CCN(c3cc4cc(NC(=O)C5CC56CCOC6)ncc4cc3Cl)CC2)COCC1O (single isomer, unassigned) [Ex-2.10, (1R,3R or 1S,3S)-N-(7-chloro-6-(4-((3R,4R or 3S,4S)-4-hydroxy-3-methyltetrahydrofuran-3-yl)piperazin-1-yl)isoquinolin-3-yl)-5-oxaspiro[2.4]heptane-1-carboxamide] | 0.589
2 | CC1(N2CCN(c3cc4cc(NC(=O)C5CC56CCOC6)ncc4cc3Cl)CC2)COCC1O (single isomer, unassigned) [Ex-2.11, (1R,3R or 1S,3S)-N-(7-chloro-6-(4-((3R,4R or 3S,4S)-4-hydroxy-3-methyltetrahydrofuran-3-yl)piperazin-1-yl)isoquinolin-3-yl)-5-oxaspiro[2.4]heptane-1-carboxamide] | 1.45
3 | CC1(N2CCN(c3cc4cc(NC(=O)C5CC56CC6)ncc4cc3Cl)CC2)COCC1O (single isomer, unassigned) [Ex-2.12, (R or S)-N-(7-chloro-6-(4-((3R,4R or 3S,4S)-4-hydroxy-3-methyltetrahydrofuran-3-yl)piperazin-1-yl)isoquinolin-3-yl)spiro[2.2]pentane-1-carboxamide] | 0.513
4 | CC1(N2CCN(c3cc4cc(NC(=O)C5CC56CC6)ncc4cc3Cl)CC2)COCC1O (single isomer, unassigned) [Ex-2.13, (R or S)-N-(7-chloro-6-(4-((3R,4R or 3S,4S)-4-hydroxy-3-methyltetrahydrofuran-3-yl)piperazin-1-yl)isoquinolin-3-yl)spiro[2.2]pentane-1-carboxamide] | 33.9
5 | CC1(N2CCN(c3cc4cc(NC(=O)C5CC56CC6)ncc4cc3Cl)CC2)COCC1O (single isomer, unassigned) [Ex-2.14, (R or S)-N-(7-chloro-6-(4-((3R,4R or 3S,4S)-4-hydroxy-3-methyltetrahydrofuran-3-yl)piperazin-1-yl)isoquinolin-3-yl)spiro[2.2]pentane-1-carboxamide] | 0.468
6 | CC1(N2CCN(c3cc4cc(NC(=O)C5CC56CC6)ncc4cc3Cl)CC2)COCC1O (single isomer, unassigned) [Ex-2.15, (R or S)-N-(7-chloro-6-(4-((3R,4R or 3S,4S)-4-hydroxy-3-methyltetrahydrofuran-3-yl)piperazin-1-yl)isoquinolin-3-yl)spiro[2.2]pentane-1-carboxamide] | 30.2
7 | CC1(N2CCN(c3cc4cc(NC(=O)C5CC56CC6(F)F)ncc4cc3Cl)CC2)COCC1O (single isomer, unassigned) [Ex-2.16, (1R,3R or 1S,3S)-N-(7-chloro-6-(4-((3R,4R or 3S,4S)-4-hydroxy-3-methyltetrahydrofuran-3-yl)piperazin-1-yl)isoquinolin-3-yl)-4,4-difluorospiro[2.2]pentane-1-carboxamide] | 0.813
8 | CC1(N2CCN(c3cc4cc(NC(=O)C5CC6(CC6)C5)ncc4cc3Cl)CC2)COCC1O (single isomer, unassigned) [Ex-2.17, N-(7-chloro-6-(4-((3R,4R or 3S,4S)-4-hydroxy-3-methyltetrahydrofuran-3-yl)piperazin-1-yl)isoquinolin-3-yl)spiro[2.3]hexane-5-carboxamide] | 0.955
9 | CC12CC(C(=O)Nc3cc4cc(N5CCN(C6(C)COCC6O)CC5)c(Cl)cc4cn3)(CO1)C2 (single isomer, unassigned) [Ex-2.18, N-(7-chloro-6-(4-((3R,4R or 3S,4S)-4-hydroxy-3-methyltetrahydrofuran-3-yl)piperazin-1-yl)isoquinolin-3-yl)-1-methyl-2-oxabicyclo[2.1.1]hexane-4-carboxamide] | 15.5
10 | CC1(N2CCN(c3cc4cc(NC(=O)C56CC(C5)C6)ncc4cc3Cl)CC2)COCC1O (single isomer, unassigned) [Ex-2.19, N-(7-chloro-6-(4-((3R,4R or 3S,4S)-4-hydroxy-3-methyltetrahydrofuran-3-yl)piperazin-1-yl)isoquinolin-3-yl)bicyclo[1.1.1]pentane-1-carboxamide] | 2.88
11 | C[C@H]1CN(c2cc3cc(NC(=O)C4CC45CCOCC5)ncc3cc2Cl)CCN1C1(C)COCC1O (single isomer, unassigned) [Ex-2.20, (R or S)-N-(7-chloro-6-((S or R)-4-((3R,4R, or 3S,4S)-4-hydroxy-3-methyltetrahydrofuran-3-yl)-3-methylpiperazin-1-yl)isoquinolin-3-yl)-6-oxaspiro[2.5]octane-1-carboxamide] | 0.178
12 | C[C@H]1CN(c2cc3cc(NC(=O)C4CC45CCOCC5)ncc3cc2Cl)CCN1C1(C)COCC1O (single isomer, unassigned) [Ex-2.21, (R or S)-N-(7-chloro-6-((S or R)-4-((3R,4R, or 3S,4S)-4-hydroxy-3-methyltetrahydrofuran-3-yl)-3-methylpiperazin-1-yl)isoquinolin-3-yl)-6-oxaspiro[2.5]octane-1-carboxamide] | 0.589
13 | CCC1(N2CCN(c3cc4cc(NC(=O)C5CC56CCOCC6)ncc4cc3Cl)CC2)COCC1O (single isomer, unassigned) [Ex-2.22, (R or S)-N-(7-chloro-6-(4-((3R,4R or 3S,4S)-3-ethyl-4-hydroxytetrahydrofuran-3-yl)piperazin-1-yl)isoquinolin-3-yl)-6-oxaspiro[2.5]octane-1-carboxamide] | 0.372
14 | CC1(N2CCN(c3cc4cc(NC(=O)C5CC5c5ccccn5)ncc4cc3F)CC2)COCC1O (single isomer, unassigned) [Ex-2.23, (1R,2R or 1S,2S)-N-[7-fluoro-6-[4-[(3R,4R or 3S,4S)-4-hydroxy-3-methyl-tetrahydrofuran-3-yl]piperazin-1-yl]-3-isoquinolyl]-2-(2-pyridyl)cyclopropanecarboxamide] | 0.316
15 | CC1(N2CCN(c3cc4cc(NC(=O)C5CC56CC6(F)F)ncc4cc3Cl)CC2)COCC1O (single isomer, unassigned) [Ex-3.1, (1R,3R or 1R,3S, 1S,3R, 1S,3S)-N-(7-chloro-6-(4-((3R,4R or 3S,4S)-4-hydroxy-3-methyltetrahydrofuran-3-yl)piperazin-1-yl)isoquinolin-3-yl)-4,4-difluorospiro[2.2]pentane-1-carboxamide] | 0.977
16 | CC1(N2CCN(c3cc4cc(NC(=O)C5CC56CC6(F)F)ncc4cc3Cl)CC2)COCC1O (single isomer, unassigned) [Ex-3.2] | 1.07
17 | CC1COC(=O)N1c1ccc2cnc(NC(=O)C3CC3)cc2c1 (single isomer, unassigned) [Ex-4.1, (R or S)-N-(6-(4-methyl-2-oxooxazolidin-3-yl)isoquinolin-3-yl)cyclopropanecarboxamide] | 3.47
18 | O=C(Nc1cc2cc(N3C(=O)C4CCC3C4)ccc2cn1)C1CC1 (single isomer, unassigned) [Ex-5.1] | 9.55
19 | O=C(Nc1cc2cc(N3C(=O)C4CCC3C4)ccc2cn1)C1CC1 (single isomer, unassigned) [Ex-5.2] | 25.7
20 | COC1COCC1(C)N1CCN(c2cc3cc(NC(=O)C4CC45CCOCC5)ncc3cc2Cl)CC1 (single isomer, unassigned) [Ex-5.3] | 0.372
21 | COC1COCC1(C)N1CCN(c2cc3cc(NC(=O)C4CC45CCOCC5)ncc3cc2Cl)CC1 (single isomer, unassigned) [Ex-5.4] | 28.8
22 | COC1COCC1(C)N1CCN(c2cc3cc(NC(=O)C4CC45CCOCC5)ncc3cc2Cl)CC1 (single isomer, unassigned) [Ex-5.5] | 2.63
23 | COC1COCC1(C)N1CCN(c2cc3cc(NC(=O)C4CC45CCOCC5)ncc3cc2Cl)CC1 (single isomer, unassigned) [Ex-5.6] | 316
24 | COC1COCC1N1CCN(c2cc3cc(NC(=O)C4CC45CCOCC5)ncc3cc2Cl)CC1 (single isomer, unassigned) [Ex-5.7] | 2.63
25 | COC1COCC1N1CCN(c2cc3cc(NC(=O)C4CC45CCOCC5)ncc3cc2Cl)CC1 (single isomer, unassigned) [Ex-5.8] | 191
